Source: US20070219172A1, “Selective testicular 11beta-HSD inhibitors for the treatment of hypergonadism associated disorders and modulation of fertility” (The Miriam Hospital, priority 2005, published 2007)
“Also recorded” adds a separate entry of the source. Read-outs that look alike come from different tables or passages of the source.

Legend:
11β-HSD1 Reductase [1] = target: T1, 11β-HSD1 Reductase (Rattus norvegicus, UniProt P16232); assay: 11β-HSD1 reductase inhibition, testicular Leydig cell homogenates; format: biochemical; conditions: result in words
T1 construct: testicular leydig cell homogenates; from tissue; host or cells: testicular Leydig cell homogenates

11β-HSD1 Dehydrogenase = target: T2, 11β-HSD1 Dehydrogenase (Rattus norvegicus, UniProt P16232); assay: 11β-HSD1 dehydrogenase inhibition, testicular Leydig cell homogenates; format: biochemical; conditions: result in words
T2 construct: testicular leydig cell homogenates; from tissue; host or cells: testicular Leydig cell homogenates

11β-HSD2 Dehydrogenase = target: T3, 11β-HSD2 Dehydrogenase (Ovis aries, UniProt P50168); assay: 11β-HSD2 dehydrogenase inhibition, sheep kidney microsomes; format: biochemical; conditions: result in words
T3 construct: sheep kidney microsomes; from tissue; host or cells: sheep kidney microsomes
T3 sequence (P50168 1-427): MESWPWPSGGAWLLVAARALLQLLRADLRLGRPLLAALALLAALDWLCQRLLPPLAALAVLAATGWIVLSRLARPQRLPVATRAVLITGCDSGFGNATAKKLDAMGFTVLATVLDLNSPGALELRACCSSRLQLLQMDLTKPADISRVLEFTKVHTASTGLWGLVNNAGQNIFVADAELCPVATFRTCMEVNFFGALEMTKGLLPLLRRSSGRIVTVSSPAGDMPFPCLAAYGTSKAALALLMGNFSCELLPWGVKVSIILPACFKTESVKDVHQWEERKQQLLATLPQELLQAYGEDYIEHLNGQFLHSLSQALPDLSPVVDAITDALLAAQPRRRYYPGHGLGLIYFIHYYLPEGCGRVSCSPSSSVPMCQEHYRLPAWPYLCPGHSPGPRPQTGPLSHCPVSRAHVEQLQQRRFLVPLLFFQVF

11β-HSD1 Reductase [2] = target: T1, 11β-HSD1 Reductase; assay: Backward reaction of 11β-HSD1 reductase in rat Leydig cells; format: cell-based
Procedure: Similar experiments were performed with 3α,5β-deoxycorticosterone and 3α,5β progesterone, neither of which posess an 11β-hydroxy group.

rat aortic rings = assay: Contractile response of rat aortic rings to phenylephrine; conditions: for amplification of the contractile response to phenylephrine by the steroid: rat aortic rings incubated with the steroid, versus controls
Procedure: Male Sprague-Dawley (150-200 g) rats were anesthetized with pentobarbital (50 mg/kg IP), and a median sternotomy was performed followed by the rapid removal of the thoracic aorta. The adventitia was removed, but the endothelium was left intact. The aorta was cut into 2-3 mm rings and individual rings were placed into a single well of a twenty four well culture plate and incubated at 37° C. under 95% O2-5% CO2. Each well contained 1 mL of DMEM/F12 containing 1% fetal bovine serum, streptomycin (100 μg/ml), penicillin (100 units/ml) and amphotericin (0.25 μg/ml). Aortic rings were incubated for 24 hours prior to contractility measurements with the following combinations of steroids, and antisense/nonsense oligonucleotides (3 μmol/L):
Antisense phosphorothioate oligonucleotides, targeted to block either 11β-HSD2 or 11β-HSD1 gene expression, were obtained from Research Genetics, Huntsville Ala. Antisense oligomers complementary to 20 bp sequences spanning the ribosome binding/translation start site were used. Oligomer sequences were: 5′-CATAACTGCCGTCCAACAGC-3′ (SEQ ID No.: 2) for 11β-HSD1 Antisense and 5′-AGCCCAGCGCTCCATGACTT-3′ (SEQ ID No. 3) for 111-HSD2 antisense. In control experiments the corresponding sense sequence was used as the nonsense oligomer. Antisense and nonsense oligomers were added directly to each well at 20 μg/10:1 sterile H20 per well for a final concentration of 3 μmol/L.
For contraction measurements, aortic rings were suspended by tungsten wires with 1 g of tension and placed in a vessel bath containing serum free DMEM/F12 media at 37° C. aerated with 95% O2-5% CO2, at pH 7.4. Vessels were equilibrated for 20 minutes and then tested with phenylephrine ([…]-10 μmol/L). […] The intensity of contraction was assessed by use of a Narishige micromanipulator and model FT03 force transducer (Grass Instrument Co. West Warwick, R.I.). Measurements were recorded on computer using the Labview 4.1 Virtual Instrument System (National Instruments, Austin, Tex.).

[3] = system: 11β-HSD1-reductase activity in rat aortic rings; assay: Conversion of 3H-11-dehydrocorticosterone to corticosterone by aortic rings; conditions: vascular tissue
Procedure: (ii) ^3H-11-dehydro-corticosterone (10 nmol/L)±11β-HSD1 antisense (3 μmol/L); this experiment was performed in duplicate (n=10 aortic rings per well). Control groups were incubated with the appropriate nonsense oligomer. ^3H-corticosterone in the incubation medium after 24 hrs was then measured. In this experiment, aortic rings were also analyzed for ^3H-corticosterone content. Rings from duplicate incubations (total n=20) were blotted dry, pooled and homogenized in 50% methanol using a Polytron. The homogenates were then centrifuged, extracted as below using Sep-Paks and injected onto a HPLC system for analysis.
Incubation media was collected, ran through a Sep-Pak and eluted with 3 mls of methanol, the eluate was then dried under nitrogen and reconstituted in 500:1 methanol. The aortic rings were dried and weighed. The steroids present in the eluate were separated by high-pressure liquid chromatography with a Dupont Zorbax C8 column eluted at 44° C. at a flow rate of 1 mL/min using 55% methanol for 10 minutes. Steroids were observed by monitoring radioactivity on-line with a Packard Radiomatic Flo-One/Beta Series A-500 counter connected to a Dell Optiflex 425 S/L computer. Corticosterone and 11-dehydro-corticosterone were identified by comparing their retention times with that of known standards.

[4] = whole cell preparations of rat Leydig cells

T2 sequence (P16232 whole entry): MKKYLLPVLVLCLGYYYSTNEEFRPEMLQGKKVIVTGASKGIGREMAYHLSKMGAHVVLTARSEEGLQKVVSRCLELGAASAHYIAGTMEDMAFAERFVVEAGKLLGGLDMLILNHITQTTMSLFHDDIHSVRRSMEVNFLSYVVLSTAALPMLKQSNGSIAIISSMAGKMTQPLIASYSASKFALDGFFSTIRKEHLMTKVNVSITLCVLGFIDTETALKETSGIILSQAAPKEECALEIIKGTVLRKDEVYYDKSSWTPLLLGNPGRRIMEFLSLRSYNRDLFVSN
T1 sequence (P16232 whole entry): as above

Row | Compound | 11β-HSD1 Reductase inhibition (11β-HSD1 Reductase [1]) | 11β-HSD1 Dehydrogenase inhibition (11β-HSD1 Dehydrogenase) | 11β-HSD2 Dehydrogenase inhibition (11β-HSD2 Dehydrogenase) | further results
1 | C[C@]12CC[C@@H](O)C[C@@H]1CC[C@@H]1[C@@H]2[C@@H](O)C[C@]2(C)[C@@H](C(=O)CO)CC[C@@H]12 [3α,5α-reduced-corticosterone] | No Inhibition | Potent Inhibitor | Potent Inhibitor | increase in NADPH production (rat Leydig cells; [4]): three to five fold increase
2 | C[C@]12CC[C@@H](O)C[C@@H]1CC[C@@H]1[C@@H]2[C@@H](O)C[C@@]2(C)[C@@H]1CC[C@@H]2O [3α,5α-reduced-11β-OH-testosterone] | No Inhibition | Potent Inhibitor (Non-Selective) | Potent Inhibitor (Non-Selective) | 
3 | C[C@]12CC[C@@H](O)C[C@@H]1CC[C@@H]1[C@@H]2CC[C@]2(C)[C@@H](O)CC[C@@H]12 [3α5α TH-testosterone] |  |  |  | increase in NADPH production (rat Leydig cells): three to five fold increase
4 | C[C@]12CC(=O)[C@H]3[C@@H](CCC4=CC(=O)CC[C@@]43C)[C@@H]1CC[C@@H]2O [11-Keto-testosterone] | Selective Inhibitor | No Inhibition | No Inhibition | 
5 | C[C@@]12CC[C@@H]3[C@H]([C@@H](O)C[C@]4(C=O)[C@@H](C(=O)CO)CC[C@@H]34)[C@@]1(C)CC[C@@H](O)C2 [3α,5α-reduced aldosterone] | No Inhibition | Moderate Inhibitor | Potent Inhibitor | 
6 | C[C@]12CC[C@H](O)C[C@@H]1CC[C@H]1[C@@H]3CC[C@H](O)[C@@]3(C)CC(=O)[C@@H]12 [3α,5α-reduced-11-keto-testosterone] | Selective Inhibitor | No Inhibition |  | 
7 | C[C@]12CC[C@H](O)C[C@H]1CC[C@@H]1[C@@H]2[C@@H](O)C[C@]2(C)C(=O)CC[C@H]12 [3α,5α-reduced-11β-OH-androstenedione] | No Inhibition | Moderate Inhibitor | Potent Inhibitor (Non-Selective) | 
8 | C[C@]12C[C@H](O)[C@H]3[C@@H](CCC4=CC(=O)CC[C@@]43C)[C@@H]1CC[C@@H]2O [11β-OH-testosterone] | No Inhibition | Inhibitor (Non-Selective) | Inhibitor (Non-Selective) | 
9 | 3α,5α-reduced-11-keto-progesterone | Selective Inhibitor | No Inhibition |  | 
10 | C[C@]12CCC(=O)C=C1CC[C@@H]1[C@@H]2C(=O)C[C@]2(C)C(=O)CC[C@@H]12 [11-Keto-androstenedione] | Selective Inhibitor | No Inhibition | No Inhibition | 
11 | C[C@]12CC[C@@H](O)C[C@@H]1CC[C@H]1[C@@H]3CC[C@H](C(=O)CO)[C@@]3(C)CC(=O)[C@@H]12 [3α,5α-tetrahydro-11-dehydro-corticosterone] | Potent Inhibitor | No Inhibition | Potent Inhibitor | 
12 | C[C@]12CCC(=O)C[C@@H]1CC[C@@H]1[C@@H]2[C@@H](O)C[C@]2(C)[C@@H](C(=O)CO)CC[C@@H]12 [5α-dihydro-corticosterone] | No inhibition | Potent Inhibitor | Potent Inhibitor | 
13 | CC(=O)[C@H]1CC[C@H]2[C@@H]3CC[C@H]4C[C@@H](O)CC[C@]4(C)[C@H]3[C@@H](O)C[C@]12C [3α,5α-reduced-11β-OH-progesterone] | No Inhibition | Potent Inhibitor (Non-Selective) | Potent Inhibitor (Non-Selective) | increase in NADPH production (rat Leydig cells; [4]): three to five fold increase
14 | CC(=O)[C@H]1CC[C@H]2[C@@H]3CC[C@@H]4C[C@H](O)CC[C@]4(C)[C@H]3CC[C@]12C [3α,5β progesterone, 3α,5β-tetrahydro-progesterone] |  | potent inhibitors |  | effect on the backward reaction of 11β-HSD1 reductase (11β-HSD1 Reductase [2]): Neither of these compounds effected the backward reaction
15 | CC(=O)[C@H]1CC[C@H]2[C@@H]3CCC4=CC(=O)CC[C@]4(C)[C@H]3[C@@H](O)C[C@]12C [11β-OH-progesterone] | No Inhibition | Potent Inhibitor (Non-Selective) |  | 
16 | C[C@]12CC(=O)[C@H]3[C@@H](CCC4=CC(=O)CC[C@@]43C)[C@@H]1CC[C@@H]2C(=O)CO [11-dehydro-corticosterone] |  |  |  | amplification of the contractile response to phenylephrine by the steroid (rat aortic rings): amplified
17 | C[C@H](CCC(=O)O)[C@H]1CC[C@H]2[C@@H]3[C@H](O)C[C@@H]4C[C@H](O)CC[C@]4(C)[C@H]3CC[C@]12C [chenodeoxycholic acid] | No Inhibition | potent inhibitors; also recorded: Selective inhibitor | No Inhibition | 
18 | C[C@]12CC[C@@H](O)C[C@@H]1CC[C@@H]1[C@@H]2C(=O)C[C@]2(C)C(=O)CC[C@@H]12 [3α,5α-reduced-11-keto-androstenedione] | Selective Inhibitor | No Inhibition |  | 
19 | CC(=O)[C@H]1CC[C@H]2[C@@H]3CCC4=CC(=O)CC[C@]4(C)[C@H]3C(=O)C[C@]12C [11-Keto-progesterone] | Selective Inhibitor | No Inhibition | Potent Inhibitor | ability of 11-dehydro-corticosterone to amplify the contractile response to phenylephrine (rat aortic rings; rat aortic rings, 24 h, 11-dehydro-corticosterone 100 nmol/L): diminished; metabolism of 11-dehydro-corticosterone back to corticosterone [3]: decreased
20 | C[C@]12CC[C@@H](O)C[C@H]1CC[C@@H]1[C@@H]2CC[C@]2(C)[C@@H](C(=O)CO)CC[C@@H]12 [3α,5β-deoxycorticosterone, 3α,5β-terahydro-deoxycorticosterone] |  | potent inhibitors |  | effect on the backward reaction of 11β-HSD1 reductase (11β-HSD1 Reductase [2]): Neither of these compounds effected the backward reaction
21 | C[C@]12C[C@H](O)[C@H]3[C@@H](CCC4=CC(=O)CC[C@@]43C)[C@@H]1CC[C@@H]2C(=O)CO [corticosterone] |  |  |  | amplification of the contractile response to phenylephrine by the steroid (rat aortic rings): amplified contractile responses
